In PubChem BioAssay AID493048 (Broad Institute, 2011):
Active and inactive are the calls of the source. How the calls were made is not given here.

Target: GTP-binding nuclear protein Ran (Homo sapiens) + Importin subunit beta-1 (Homo sapiens) (UniProt P62826+Q14974)
Experiment: inhibitors of Ran–importin-beta complex, dose response, biochemical, plate reader, dry powder (AID 493048)
Conditions: biochemical RanGTP-importin-beta complex

activity change, negative = inhibition (at 100 µM (top of the series))	Compound	further results
inactive	C[C@H](Nc1nc(Cl)nc2ccccc12)c1ccccc1	–
inactive	CC1(C)CCC(c2ccc(Cl)cc2)=C(CN2CCN(c3ccc(C(=O)NS(=O)(=O)c4ccc(N[C@H](CCN5CCOCC5)CSc5ccccc5)c(S(=O)(=O)C(F)(F)F)c4)cc3)CC2)C1	–
inactive	c1ccc2c(N3CCCC3)nc(N3CCCC3)nc2c1	–
inactive	O=c1[nH]c(N2CCCC2)nc2ccccc12	–
–	CCCN(CCC)c1nc(N2CCCC2)nc2cc(OC)c(OC)cc12	activity change, negative = inhibition (at 50 µM (top of the series)): inactive
–	COc1ccc(CCNC(=O)c2cc3c(=O)n4cccc(C)c4nc3n(CCCN3CCOCC3)c2=N)cc1	AC50: 9.68 µM
–	Cc1cccc(-n2c(C)cc(/C=C3/C(=N)N4N=C(CC(C)C)SC4=NC3=O)c2C)c1	AC50: 28.2 µM
inactive	C[C@@H](Nc1nc(Cl)nc2ccccc12)c1ccccc1	–
–	C=CCn1c(N)c(C(=O)OCCC)c2nc3ccccc3nc21	AC50: 36.4 µM
–	CC(C)SCC(=O)Nc1ncc2c(n1)-c1ccccc1CC2	AC50: 37.3 µM
inactive	CCCN(CCC)c1nc(N2CCCC2)nc2ccccc12	–
inactive	CCNc1nc(N2CCCC2)nc2ccccc12	–
inactive	C[C@H](Nc1nc(N2CCCC2)nc2ccccc12)c1ccccc1	–
inactive	Cc1cccc(C)c1NC(=O)C1C(=O)c2sccc2N(C)S1(=O)=O (stereo unspecified)	–
–	O=C(O)Cn1cc(/C=C2\SC(=O)N(CC(=O)N3CCCCCC3)C2=O)c2ccccc21	AC50: 90.9 µM
inactive	CCCN(CCC)c1nc(N2CCNCC2)c2ccccc2n1	–
inactive	C[C@@H](Nc1nc(N2CCCC2)nc2ccccc12)c1ccccc1	–
inactive	Cc1cc(Nc2ccc(C(F)(F)F)cc2)n2ncnc2n1	–

activity change, negative = inhibition (at 100 µM (top of the series))	Compound	further results
inactive	CC1(C)CC(=O)c2c(C(F)(F)F)nn(-c3ccc(C(N)=O)c(OC4CCC(N)CC4)c3)c2C1 (stereo unspecified)	–
inactive	CCN(CC)c1nc(N2CCCC2)nc2ccccc12	–
inactive	Clc1nc(NCc2ccccc2)c2ccccc2n1	–
inactive	CCCN(CCC)c1nc(N2CCOCC2)nc2ccccc12	–
inactive	c1ccc(CNc2nc(N3CCCC3)nc3ccccc23)cc1	–
inactive	CCCN(CCC)c1nc(N)c2ccccc2n1	–
inactive	CCCN(CCC)c1nc(Cl)nc2ccccc12	–
–	COc1cc(OC)cc(C(=O)NCCNc2nc3cc(C)cc(C)c3cc2C#N)c1	AC50: 12.9 µM
inactive	CC1(C)CC(=O)c2c(C(F)(F)F)nn(-c3ccc(C(N)=O)c(NC4CCC(O)CC4)c3)c2C1 (stereo unspecified)	–
inactive	c1ccc2c(N3CCOCC3)nc(N3CCOCC3)nc2c1	–
inactive	COc1cc2nc(N3CCCC3)nc(N3CCCC3)c2cc1OC	–
–	CC1=C(C(=O)OCC2CCCO2)C(c2ccccc2OC(C)C)C2C(=O)CC(c3ccco3)CC2=N1 (stereo unspecified)	AC50: 10.3 µM
inactive	CSc1ccc(/C=C(/Sc2nnc(-c3ccccc3)o2)C(=O)O)cc1	–
–	COc1ccc(-c2cc(C(F)(F)F)n3nc(N)nc3n2)cc1	AC50: 61.5 µM
–	CCCN(CCC)c1nc(N2CCCC2)c2cc(OC)c(OC)cc2n1	activity change, negative = inhibition (at 26 µM (top of the series)): inactive
inactive	CCCN(CCC)c1nc(NCc2ccccc2)nc2ccccc12	–
inactive	CC(Nc1nc(N2CCCC2)nc2ccccc12)c1ccccc1 (stereo unspecified)	–
inactive	CC1(C)CC(=O)c2c(C(F)(F)F)nn(-c3ccc(C(N)=O)c(NC4CCC(OC(=O)CN)CC4)c3)c2C1 (stereo unspecified)	–
